We go through three compounds from ChEMBL document CHEMBL3272295, “Drugs derived from cannabinoids. 5. delta6a,10a-Tetrahydrocannabinol and heterocyclic analogs containing aromatic side chains” (J Med Chem, 1976).

Data set [1] has as its system Rattus norvegicus. Kind of data set: Antianxiety activity in Long-Evans rat assessed as reduction in motor activity at 10 mg/kg, po after 2 hrs relative to vehicle-treated control. The class given is functional. The arrangement: scale not given: the % may be the effect or the level left.
Data set [2] has as its system Rattus norvegicus. The data set is described as follows: Antipsychotic activity in rat assessed as reduction of methamphetamine-induced hyperactivity at 5 mg/kg, po administered prior to methamphetamine challenge relative to vehicle-treated control. In kind it is functional. The arrangement: scale not given: the % may be the effect or the level left.
Data set [3] can be described thus: Acute toxicity in po dosed mouse. In kind it is organism-based. As to conditions: in vivo.
In data set [4] the test system is Rattus norvegicus. Kind of data set: Antihypertensive activity in spontaneously hypertensive rat model assessed as reduction in blood pressure at 1 mg/kg, po after 24 hrs. In kind it is functional. The arrangement: scale not given: the % may be the effect or the level left.
In data set [5] the test system is Mus musculus. The data set is described as follows: Analgesic activity in mouse assessed as inhibition of acetic acid-induced writhing at 10 mg/kg, po administered 30 mins prior to acetic acid challenge measured after 5 mins for 20 mins. In kind it is functional. A general note: An intraperitoneal irritant provokes the stretching counted in writhing tests.
The subject of data set [6] is Rattus norvegicus. Kind of data set: Antihypertensive activity in spontaneously hypertensive rat model assessed as reduction in blood pressure at 3 mg/kg, po after 24 hrs. The class given is functional. The arrangement: scale not given: the % may be the effect or the level left.
Data set [7] deals with Rattus norvegicus. Kind of data set: Analgesic activity in Sprague-Dawley rat assessed as increase in pain threshold at 40 mg/kg, po after 15 to 90 mins by tail flick test. In kind it is functional.
Data set [8] has as its system Rattus norvegicus. The data set is described as follows: Antihypertensive activity in spontaneously hypertensive rat model assessed as reduction in blood pressure at 1 mg/kg, po after 3 hrs. The class given is functional. The arrangement: scale not given: the % may be the effect or the level left.
For data set [9], the system named is Rattus norvegicus. The data set is described as follows: Antihypertensive activity in spontaneously hypertensive rat model assessed as reduction in blood pressure at 3 mg/kg, po after 3 hrs. In kind it is functional. The arrangement: scale not given: the % may be the effect or the level left.
For data set [10], the system named is Rattus norvegicus. The data set is described as follows: Increase in pepsin concentration in Sprague-Dawley rat at 1 mg/kg, po administered 30 mins prior to pylorus ligation measured after 4 hrs relative to control. In kind it is functional.
In data set [11] the test system is Rattus norvegicus. Kind of data set: Increase in pepsin concentration in Sprague-Dawley rat at 5 mg/kg, po administered 30 mins prior to pylorus ligation measured after 4 hrs relative to control. In kind it is functional.
Data set [12] deals with Rattus norvegicus. The data set is described as follows: Antisecretory activity in Sprague-Dawley rat assessed as decrease in acid output at 10 mg/kg, po administered 30 mins prior to pylorus ligation measured after 4 hrs relative to control. The class given is functional. The arrangement: scale not given: the % may be the effect or the level left.
Data set [13] has as its system Rattus norvegicus. Kind of data set: Antisecretory activity in Sprague-Dawley rat assessed as decrease in acid output at 1 mg/kg, po administered 30 mins prior to pylorus ligation measured after 4 hrs relative to control. The class given is functional. The arrangement: scale not given: the % may be the effect or the level left.
The test system of data set [14] is Rattus norvegicus. The data set is described as follows: Antisecretory activity in Sprague-Dawley rat assessed as decrease in pepsin output at 5 mg/kg, po administered 30 mins prior to pylorus ligation measured after 4 hrs relative to control. The arrangement: scale not given: the % may be the effect or the level left. In kind it is functional.
In data set [15] the test system is Rattus norvegicus. The data set is described as follows: Antisecretory activity in Sprague-Dawley rat assessed as decrease in acidity at 10 mg/kg, po administered 30 mins prior to pylorus ligation measured after 4 hrs relative to control. In kind it is functional. The arrangement: scale not given: the % may be the effect or the level left.
For data set [16], the system named is Rattus norvegicus. Kind of data set: Antisecretory activity in Sprague-Dawley rat assessed as decrease in volume at 5 mg/kg, po administered 30 mins prior to pylorus ligation measured after 4 hrs relative to control. In kind it is functional. The arrangement: scale not given: the % may be the effect or the level left.
For data set [17], the system named is Rattus norvegicus. Kind of data set: Antisecretory activity in Sprague-Dawley rat assessed as decrease in acid output at 5 mg/kg, po administered 30 mins prior to pylorus ligation measured after 4 hrs relative to control. The class given is functional. The arrangement: scale not given: the % may be the effect or the level left.
Data set [18] concerns Rattus norvegicus. The data set is described as follows: Antisecretory activity in Sprague-Dawley rat assessed as decrease in pepsin output at 10 mg/kg, po administered 30 mins prior to pylorus ligation measured after 4 hrs relative to control. The class given is functional. The arrangement: scale not given: the % may be the effect or the level left.
Data set [19] deals with Rattus norvegicus. The data set is described as follows: Antisecretory activity in Sprague-Dawley rat assessed as decrease in volume at 1 mg/kg, po administered 30 mins prior to pylorus ligation measured after 4 hrs relative to control. The class given is functional. The arrangement: scale not given: the % may be the effect or the level left.
Data set [20] relates to Rattus norvegicus. Kind of data set: Antisecretory activity in Sprague-Dawley rat assessed as decrease in acid output at 2.5 mg/kg, po administered 30 mins prior to pylorus ligation measured after 4 hrs relative to control. The arrangement: scale not given: the % may be the effect or the level left. The class given is functional.
The subject of data set [21] is Rattus norvegicus. Kind of data set: Antisecretory activity in Sprague-Dawley rat assessed as decrease in acidity at 5 mg/kg, po administered 30 mins prior to pylorus ligation measured after 4 hrs relative to control. The class given is functional. The arrangement: scale not given: the % may be the effect or the level left.
Data set [22] relates to Rattus norvegicus. Kind of data set: Increase in pepsin concentration in Sprague-Dawley rat at 2.5 mg/kg, po administered 30 mins prior to pylorus ligation measured after 4 hrs relative to control. In kind it is functional.
Data set [23] concerns Rattus norvegicus. Kind of data set: Antiulcer activity in albino Sprague-Dawley rat reserpine ulcer model assessed as prevention of reserpine-induced gastric lesions by measuring ulcer index scores at 5 mg/kg, po administered 30 mins prior to reserpine challenge measured after 6 hrs. The class given is functional, Stomach.
Data set [24] concerns Rattus norvegicus. Kind of data set: Antisecretory activity in Sprague-Dawley rat assessed as decrease in pepsin output at 2.5 mg/kg, po administered 30 mins prior to pylorus ligation measured after 4 hrs relative to control. The class given is functional. The arrangement: scale not given: the % may be the effect or the level left.
In data set [25] the test system is Rattus norvegicus. The data set is described as follows: Antiulcer activity in albino Sprague-Dawley rat shay ulcer model assessed as ulcer index scores at 10 mg/kg administered intraduodenally post pyloric ligation measured after 18.5 hrs relative to vehicle-treated control. The class given is functional. As to conditions: route intraduodenal.
For data set [26], the system named is Rattus norvegicus. The data set is described as follows: Antiulcer activity in albino Sprague-Dawley rat shay ulcer model assessed as ulcer index scores at 5 mg/kg administered intraduodenally post pyloric ligation measured after 18.5 hrs relative to vehicle-treated control. In kind it is functional. The conditions noted are these: route intraduodenal.
Data set [27] deals with Rattus norvegicus. Kind of data set: Increase in pepsin concentration in Sprague-Dawley rat at 10 mg/kg, po administered 30 mins prior to pylorus ligation measured after 4 hrs relative to control. The class given is functional.
Data set [28] concerns Rattus norvegicus. Kind of data set: Antisecretory activity in Sprague-Dawley rat assessed as decrease in volume at 2.5 mg/kg, po administered 30 mins prior to pylorus ligation measured after 4 hrs relative to control. The arrangement: scale not given: the % may be the effect or the level left. The class given is functional.
Data set [29] deals with Rattus norvegicus. Kind of data set: Antisecretory activity in Sprague-Dawley rat assessed as decrease in acidity at 1 mg/kg, po administered 30 mins prior to pylorus ligation measured after 4 hrs relative to control. The arrangement: scale not given: the % may be the effect or the level left. The class given is functional.
Data set [30] relates to Rattus norvegicus. Kind of data set: Antiulcer activity in albino Sprague-Dawley rat stress ulcer model assessed as prevention of stress-induced gastric lesions at 5 mg/kg, po administered 30 mins prior to stress measured after 4 hrs relative to vehicle-treated control. In kind it is functional, Stomach.
Data set [31] concerns Rattus norvegicus. The data set is described as follows: Antisecretory activity in Sprague-Dawley rat assessed as decrease in pepsin output at 1 mg/kg, po administered 30 mins prior to pylorus ligation measured after 4 hrs relative to control. The class given is functional. The arrangement: scale not given: the % may be the effect or the level left.
For data set [32], the system named is Rattus norvegicus. The data set is described as follows: Antisecretory activity in Sprague-Dawley rat assessed as decrease in acidity at 2.5 mg/kg, po administered 30 mins prior to pylorus ligation measured after 4 hrs relative to control. The class given is functional. The arrangement: scale not given: the % may be the effect or the level left.
In data set [33] the test system is Rattus norvegicus. The data set is described as follows: Antisecretory activity in Sprague-Dawley rat assessed as decrease in volume at 10 mg/kg, po administered 30 mins prior to pylorus ligation measured after 4 hrs relative to control. The arrangement: scale not given: the % may be the effect or the level left. The class given is functional.
The test system of data set [34] is Rattus norvegicus. The data set is described as follows: Antiulcer activity in albino Sprague-Dawley rat stress ulcer model assessed as prevention of stress-induced gastric lesions by measuring ulcer index score at 10 mg/kg, po administered 30 mins prior to stress measured after 4 hrs. In kind it is functional, Stomach.
The test system of data set [35] is Rattus norvegicus. The data set is described as follows: Antiulcer activity in albino Sprague-Dawley rat reserpine ulcer model assessed as prevention of reserpine-induced gastric lesions by measuring ulcer index scores at 10 mg/kg, po administered 30 mins prior to reserpine challenge measured after 6 hrs. In kind it is functional, Stomach.
For data set [36], the species on record is Rattus norvegicus. The data set is described as follows: animal or person. The class given is functional. The conditions noted are these: Charles River, route oral.
Description: Antidiarrheal activity in Charles River rat assessed as inhibition of castor oil-induced diarrhea by measuring protected animals at 1 mg/kg, po administered 1 hr prior to castor oil challenge measured after 1 hr relative to vehicle-treated control
The species entered for data set [37] is Rattus norvegicus. Kind of data set: animal or person. As to conditions: Charles River, po, read-out: INH.
Description: Antidiarrheal activity in Charles River rat assessed as inhibition of castor oil-induced diarrhea by measuring protected animals at 2 mg/kg, po administered 1 hr prior to castor oil challenge measured after 1 hr relative to vehicle-treated control
The species entered for data set [38] is Rattus norvegicus. Kind of data set: animal or person. In kind it is functional. The conditions noted are these: Charles River, route oral. This is another data set of the same source.
Description: Antidiarrheal activity in Charles River rat assessed as inhibition of castor oil-induced diarrhea by measuring protected animals at 0.5 mg/kg, po administered 1 hr prior to castor oil challenge measured after 1 hr relative to vehicle-treated control

For `CC1CCC2=C(C1)c1c(O)cc(C(C)CCc3ccc(F)cc3)cc1OC2(C)C` (stereo not drawn), the Activity is 72% in data set [1]; 23% in [2]; 5% in [4]; 8% in data set [6]; 70% in data set [7]; 8% in data set [8]. The Activity in data set [9] amounted to 28%. In addition, the LD50 in data set [3] was no less than 1000 mg/kg. Also, in data set [5], the inhibition in vivo at 10 mg/kg was 27%.

For `Cl.NC(=S)Cc1ccccn1`, the Activity in data set [10] is on record as 29.3%; in data set [11], 92.6%; in [12], 95.5%; in data set [13], 35.5%; in data set [14], 31%; in [15], 86.3%. Besides, the Activity in data set [16] turned out to be 64%; in data set [17], 81.8%; in [18], 58.9%; in data set [19], 33.1%; in data set [20], 47.3%; in data set [21], 49.8%. The Activity in data set [22] is reported as 43.1%; in data set [24], 8.4%; in data set [27] it was 45.8%; in data set [28] it was 35.8%; in data set [29] it was 3.8%; in data set [31], 19%. For the same compound, the Activity was found to be 17.4% in data set [32] and 76.7% in data set [33]. The UI was determined as 0.1 in data set [23]; 0.7 in data set [25]; 3.3 in data set [26]; 0.4 in data set [30]; 0 in data set [34]; 0 in data set [35].

In [36], `CN1CC[C@]23c4c5ccc(O)c4O[C@H]2[C@@H](O)C=C[C@H]3[C@H]1C5` registered an inhibition in vivo at 1 mg/kg of 30%. Besides, in data set [37], the inhibition in vivo at 2 mg/kg came to 50%. This compound also came in with an inhibition in vivo at 0.5 mg/kg in data set [38] of 0%.

A word on the LD50: it is the dose at which mortality reaches 50%.
